Data set [1] in a line: AMPatch in-vivo tobramycin PK monitoring in a rat model (ISF sensor readout and blood LC-MS/MS). The arrangement: species or system Sprague-Dawley rats. As to conditions: intravenous tobramycin 20 mg/kg, different animals. The source says: More particularly, the developed AMPatch was applied to monitor the PK profile of tobramycin in dermal ISF using a rat model and investigate the drug's ISF-blood correlation. Accordingly, used were three healthy adult Sprague-Dawley rats and the animals were anesthetized during the test (FIG. 4A). An AMPatch was placed at the back of the animal to render continuous ISF monitoring upon intravenous tobramycin injection. […] To investigate the drug's ISF-blood correlation, blood samples were simultaneously collected before and at intermittent time points after drug injection, followed by standard lab analysis (liquid chromatography with tandem mass spectrometry, LC-MS/MS). The acquired PK readouts were interpreted using a two compartment-based pharmacokinetic model, which captures the drug's distribution (e.g., from blood to ISF) and elimination processes (FIG. 4B). The blood-ISF correlation was evaluated by comparing the drug's circulating AUC (AUC_blood) versus the AUC and the maximum concentrations of ISF drug, where the ISF concentrations can be equivalently presented by the measured sensor response (denoting AUC_ISF and R_max, respectively).
An AMPatch according to embodiments was first deployed in a manner to assess its capability of tracking the ISF PK profile in-vivo. […]

The conditions of data set [2]: tobramycin treatments; cited from earlier work.

On to `NC[C@H]1O[C@H](O[C@H]2[C@H](O)[C@@H](O[C@H]3O[C@H](CO)[C@@H](O)[C@H](N)[C@H]3O)[C@H](N)C[C@@H]2N)[C@H](N)C[C@@H]1O` [tobramycin], for which, in data set [1] (Sprague-Dawley, blood LC-MS/MS, read-out: AUC_blood), the AUC is 176 µM·h. For the same compound, the AUC_ISF in data set [1] (dermal ISF, AMPatch sensor response) was determined as 7.7±5.2 %·h. Moreover, in data set [2], the “rate of nephrotoxicity incidence” value was 12%.

These data come from US20250185948A1, “WEARABLE APTAMER MICRONEEDLE PATCH FOR CONTINUOUS MINIMALLY-INVASIVE BIOMONITORING” (THE REGENTS OF THE UNIVERSITY OF CALIFORNIA, priority 2022, published 2025).
